The source of these data is ChEMBL document CHEMBL4421722, “Inhibitors of protein prenyltransferases” (2013).

One assay deals with MIA PaCa-2. Description: Antiproliferative activity against human MIAPaCa2 cells assessed as inhibition of cell proliferation incubated for 72 hrs by CCK8 assay. The assay is classed as functional, cell-based. Particulars: MIA PaCa-2, 72 h. In general terms: Formazan colour is commonly taken as a measure of viable cells.
The test system of assay [1] is PANC-1. Description: Antiproliferative activity against human PANC1 cells assessed as inhibition of cell proliferation incubated for 72 hrs by CCK8 assay. The assay is classed as functional, cell-based. To be noted: PANC-1, 72 h.
In another assay the test system is BT-474. Put plainly: Antiproliferative activity against human BT474 cells assessed as inhibition of cell proliferation incubated for 72 hrs by CCK8 assay. It counts as functional, cell-based. To be noted: BT-474, 72 h.
A further assay relates to ASPC1. Description: Antiproliferative activity against human AsPC1 cells assessed as inhibition of cell proliferation incubated for 6 days by CCK8 assay. The assay is classed as functional, cell-based. To be noted: ASPC1, 144 h.
In the next assay the test system is MDA-MB-231. Description: Antiproliferative activity against human MDA-MB-231 cells assessed as inhibition of cell proliferation incubated for 72 hrs by CCK8 assay. The assay is classed as functional. Particulars: MDA-MB-231, 72 h.
The test system of the next assay is K562. Description: Antiproliferative activity against human K562 cells assessed as inhibition of cell proliferation incubated for 72 hrs by CCK8 assay. The assay is classed as functional, cell-based. To be noted: K562, 72 h.
For assay [2], the system named is Jurkat. Description: Antiproliferative activity against human Jurkat cells assessed as inhibition of cell proliferation incubated for 72 hrs by CCK8 assay. It counts as functional, cell-based.
A short description of assay [3]: Inhibition of rat recombinant geranylgeranyltransferase type I expressed in Escherichia coli assessed as reduction in geranylgeranylation of RhoA incubated for 30 mins in presence of [3H]GGPP by scintillation counting assay relative to control.
The subject of another assay is Capan-2. Put plainly: Antiproliferative activity against human Capan2 cells assessed as inhibition of cell proliferation incubated for 72 hrs by CCK8 assay. The assay is classed as functional, cell-based. To be noted: Capan-2, 72 h.
A further assay has as its system CFPAC-1. Description: Antiproliferative activity against human CFPAC-1 cells assessed as inhibition of cell proliferation incubated for 72 hrs by CCK8 assay. It counts as functional, cell-based. To be noted: CFPAC-1, 72 h.
In assay [4] the target is T1, Geranylgeranyl transferase type-2 (Homo sapiens) (UniProt P53611+Q92696). Put plainly: Uncompetitive type inhibition of RabGGTase (unknown origin) using fixed Rab7 as substrate protein and varying [3H]geranylgeranyl pyrophosphate incubated for 20 mins by scintillation counting assay. The assay is classed as protein-complex assay.
In assay [5] the target is T2, Geranylgeranyl transferase type-2 (Homo sapiens, UniProt P53611+Q92696).
T2 sequence (P53611 whole entry): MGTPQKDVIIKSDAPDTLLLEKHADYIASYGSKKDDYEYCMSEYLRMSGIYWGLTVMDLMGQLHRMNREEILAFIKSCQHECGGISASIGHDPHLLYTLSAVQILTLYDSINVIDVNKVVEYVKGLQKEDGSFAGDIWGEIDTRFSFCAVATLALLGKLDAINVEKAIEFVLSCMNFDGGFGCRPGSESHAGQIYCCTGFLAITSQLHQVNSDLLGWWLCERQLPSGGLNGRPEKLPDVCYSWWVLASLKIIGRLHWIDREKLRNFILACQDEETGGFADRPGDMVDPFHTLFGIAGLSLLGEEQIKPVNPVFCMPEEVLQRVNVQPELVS
T2 sequence (Q92696 whole entry): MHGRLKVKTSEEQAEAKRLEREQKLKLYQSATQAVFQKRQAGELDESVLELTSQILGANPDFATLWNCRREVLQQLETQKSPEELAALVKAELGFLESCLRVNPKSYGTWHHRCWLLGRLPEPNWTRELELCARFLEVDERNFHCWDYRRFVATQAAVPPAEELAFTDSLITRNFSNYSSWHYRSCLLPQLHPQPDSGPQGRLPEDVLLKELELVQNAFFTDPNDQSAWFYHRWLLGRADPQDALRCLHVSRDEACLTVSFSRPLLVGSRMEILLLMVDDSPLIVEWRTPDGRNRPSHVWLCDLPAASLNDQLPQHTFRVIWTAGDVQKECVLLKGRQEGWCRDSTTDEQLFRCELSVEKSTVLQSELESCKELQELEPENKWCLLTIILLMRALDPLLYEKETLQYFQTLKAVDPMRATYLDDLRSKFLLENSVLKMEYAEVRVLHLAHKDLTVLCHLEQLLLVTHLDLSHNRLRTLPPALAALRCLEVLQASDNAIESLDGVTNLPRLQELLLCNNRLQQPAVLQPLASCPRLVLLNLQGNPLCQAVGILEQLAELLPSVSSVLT
Put plainly: Competitive type inhibition of RabGGTase (unknown origin) using varying Rab7 as substrate protein and fixed [3H]geranylgeranyl pyrophosphate incubated for 20 mins by scintillation counting assay. It counts as protein-complex assay.

The target in assay [6] is T2, Geranylgeranyl transferase type-2. Description: Inhibition of RabGGTase (unknown origin) using YPTI as substrate protein and [3H]geranylgeranyl pyrophosphate incubated for 20 mins by scintillation counting assay. It counts as protein-complex assay.
The target of assay [7] is T1, Geranylgeranyl transferase type-2 (Homo sapiens). Description: Inhibition of RabGGTase in HEK293 cells assessed as reduction in geranylgeranylation of Rab5b protein at 20 uM incubated for 48 hrs by SDS-PAGE and immunoblot analysis. The assay is classed as cell-based. A general note: In western blotting, separated proteins are transferred to a membrane and probed.
Assay [8] has as its system HEK293. Description: Inhibition of geranylgeranyltransferase type I in HEK293 cells expressing Myc-HA-tagged Rheb-WT assessed as effect on unprenylated Rap1 accumulation at 5 to 20 uM incubated for 48 hrs by SDS-PAGE and immunoblot analysis. It counts as cell-based. Particulars: Homo sapiens.
In assay [9] the target is T1, Geranylgeranyl transferase type-2 (Homo sapiens). Put plainly: Inhibition of RabGGTase in HEK293 cells assessed as increase in Rab5b protein in soluble fraction at 5 to 20 uM incubated for 48 hrs by SDS-PAGE and immunoblot analysis. It counts as cell-based.
Assay [10] addresses Protein farnesyltransferase (Homo sapiens) (UniProt P49354+P49356). Put plainly: Inhibition of FTase in HEK293 cells assessed as reduction in H-ras farnesylation at […] 10 uM incubated for 48 hrs by SDS-PAGE and immunoblot analysis. The assay is classed as cell-based.
The target of assay [11] is Protein farnesyltransferase (Rattus norvegicus, UniProt Q02293+Q04631). Description: Inhibition of rat recombinant FTase alpha/beta expressed in Escherichia coli using K-Ras4B as a substrate as and [3H]farnesyl pyrophosphate incubated for 30 mins by scintillation counting assay.
Assay [12] deals with T1, Geranylgeranyl transferase type-2 (Homo sapiens). Put plainly: Inhibition of RabGGTase in HEK293 cells assessed as reduction in geranylgeranylation of Rab5b protein at 5 to 20 uM incubated for 48 hrs by SDS-PAGE and immunoblot analysis. It counts as cell-based.
Assay [13] has the same target. Put plainly: Inhibition of RabGGTase (unknown origin) up to 10000 nM using YPTI as substrate protein and [3H]geranylgeranyl pyrophosphate incubated for 20 mins by scintillation counting assay. It counts as protein-complex assay.
For assay [14], the system named is HEK293. Description: Inhibition of geranylgeranyltransferase type I in HEK293 cells expressing Myc-HA-tagged Rheb-WT assessed as effect on unprenylated Rap1 accumulation at 2.5 uM incubated for 48 hrs by SDS-PAGE and immunoblot analysis. It counts as cell-based. To be noted: Homo sapiens.
For assay [15], the target named is Protein farnesyltransferase (Rattus norvegicus) (UniProt Q04631+Q02293). Description: Inhibition of rat recombinant FTase alpha/beta expressed in Escherichia coli at 50000 nM using K-Ras4B as a substrate as and [3H]farnesyl pyrophosphate incubated for 30 mins by scintillation counting assay.
The species entered for assay [16] is Rattus norvegicus. Put plainly: Uncompetitive inhibition of rat recombinant geranylgeranyltransferase type I expressed in Escherichia coli assessed as reduction in geranylgeranylation of RhoA incubated for 30 mins in presence of varying level of [3H]GGPP and fixed RhoA levels by scintillation counting assay by Michaelis-Menten plot analysis.
The species named for assay [17] is Rattus norvegicus. Put plainly: Competitive inhibition of rat recombinant geranylgeranyltransferase type I expressed in Escherichia coli assessed as reduction in geranylgeranylation of RhoA incubated for 30 mins in presence of fixed level of [3H]GGPP and varying RhoA levels by scintillation counting assay relative to control.
In assay [18] the test system is PANC-1. Put plainly: Antiproliferative activity against human PANC1 cells assessed as inhibition of cell proliferation at 12.5 uM incubated for 72 hrs by CCK8 assay. The assay is classed as functional, cell-based.
Assay [19] is filed under the species Rattus norvegicus. Put plainly: Competitive inhibition of rat recombinant geranylgeranyltransferase type I expressed in Escherichia coli assessed as reduction in geranylgeranylation of RhoA incubated for 30 mins in presence of varying level of [3H]GGPP and fixed RhoA levels by scintillation counting assay relative to control.
Assay [20] is filed under the species Rattus norvegicus. Put plainly: Inhibition of rat recombinant geranylgeranyltransferase type I expressed in Escherichia coli assessed as residual enzyme activity for geranylgeranylation of RhoA at 50 uM incubated for 30 mins in presence of [3H]GGPP by scintillation counting assay relative to control.
The species entered for assay [21] is Rattus norvegicus. Put plainly: Inhibition of rat recombinant geranylgeranyltransferase type I expressed in Escherichia coli assessed as residual enzyme activity for geranylgeranylation of K-Ras4B at 50 uM incubated for 30 mins in presence of [3H]GGPP by scintillation counting assay relative to control.
In assay [22] the test system is HEK293. Description: Inhibition of geranylgeranyltransferase type I in HEK293 cells expressing Myc-HA-tagged Rheb-WT assessed as effect on unprenylated Rap1 accumulation at 3.1 to 25 uM incubated for 48 hrs by SDS-PAGE and immunoblot analysis. The assay is classed as cell-based. To be noted: Homo sapiens.
The subject of assay [23] is HEK293. Description: Inhibition of geranylgeranyltransferase type I in HEK293 cells expressing Myc-HA-tagged Rheb-CVSL assessed as effect on unprenylated Rap1 accumulation at 12.5 to 50 uM incubated for 48 hrs by SDS-PAGE and immunoblot analysis. It counts as cell-based. Particulars: Homo sapiens.
Assay [24] deals with Jurkat. Description: Antiproliferative activity against human Jurkat cells assessed as inhibition of cell proliferation at 12.5 uM incubated for 72 hrs by CCK8 assay. It counts as functional, cell-based.
Assay [25] is described as follows: Inhibition of rat recombinant geranylgeranyltransferase type I expressed in Escherichia coli assessed as reduction in geranylgeranylation of K-Ras4B incubated for 30 mins in presence of [3H]GGPP by scintillation counting assay.

The source made the active and inactive calls. No cut-off for these calls is given here.

Take `Cc1ccccc1S(=O)(=O)N1[C@@H](c2ccc(Cl)c(Cl)c2)C(C(=O)N[C@@H](Cc2ccccc2)C(N)=O)=C[C@H]1C(C)(C)C`: the GI50 was 7.49 to 8.06 µM in the assay with MIA PaCa-2; 7.52 to 11.7 µM with PANC-1 [1]; 10.6 to 10.8 µM in the assay with BT-474; 11.5 to 12.9 µM with ASPC1; 5.54 to 12.6 µM with MDA-MB-231; 6.74 to 6.9 µM with K562. Also, the GI50 in the assay on Jurkat [2] was in the range of 5.62 to 6.9 µM; in the assay on Capan-2, 8.45 to 11.3 µM; in the assay with CFPAC-1, 2.03 to 6.09 µM. In assay [3], the IC50 lay in the range of 5.4 to 7.6 µM.

Take `CCCCCCS[C@H]1[C@@H](C(=O)O)[C@H](c2ccc(Br)cc2)N(S(=O)(=O)c2ccc(C)cc2)[C@@H]1CCC`: the inhibition result in [4], in assay [7], in assay [9] and in assay [12] was “Active” throughout. For the same compound, in [5], the Ki worked out at 1.36 µM. Moreover, the IC50 in [6] is 2.1 µM; in assay [3], above 50 µM; in assay [11] it was above 100 µM. The inhibition entry (in the assay with HEK293 [8]; in assay [10]) was “inactive” throughout.

Consider `Cc1ccccc1S(=O)(=O)N1[C@@H](c2ccc(Cl)cc2)C(C(=O)O)=C[C@H]1C(C)(C)C` (relative stereo), for which the inhibition entry (in [13]; in the assay listed under Rattus norvegicus [16]; in the assay listed under Rattus norvegicus [17]; with HEK293 [22]; with HEK293 [23]) was “Active” in each case. Also, the inhibition entry (with HEK293 [14]; in assay [15]; in the assay listed under Rattus norvegicus [19]) was “inactive” each time. Moreover, the “growth inhibition (GI)” value in the assay with PANC-1 [18] and in the assay with Jurkat [24] was “Active” each time. For the same compound, the Activity in the assay filed under Rattus norvegicus [20] came to 5.3%; in the assay listed under Rattus norvegicus [21], 13.3%. For the same compound, the IC50 in assay [3] is 0.5 to 2.5 µM; in assay [25] it was 2 µM.

As usually defined, the GI50 is the concentration at which growth is held to half of that of the control. One may read the IC50 as the concentration at which inhibition is half-maximal. As a reminder, the Ki is the equilibrium dissociation constant of an inhibitor or competing ligand from its target. A higher Ki goes with a looser hold on the target.
